The results in this text go back to patent US7767707B2, “Fused pyrazolyl compounds having an aminoalkylcarbonyl group” (Yung Shin Pharm. Ind. Co., Ltd., priority 2007, dated 2010).

The test system of this test is NCI H-226 cells. Briefly: Cytotoxicity MTT assay against NCI H-226 cells. The following applies: NCI H-226 cells (4 × 10^4), 72 hrs treatment, mean ± S.D. of three experiments. Type of test: cell-based. As for the experimental part: The target compound 5, 6 and related succinate (A), glutamate (B) derivatives were evaluated in a MTT assay against NCI H226 cells, and the results are shown in Table 1.
The NCI H-226 cells were maintained in RPMI-1640 medium supplemented with 10% fetal bovine serum (GIBCO/BRL), penicillin (100 unit/mL)/streptomycin (100 μg/mL) (GIBCO/BRL) and 1% L-glutamine (GIBCO/BRL) at 37° C. in a humidified atmosphere containing 5% CO2. Logarithmically growing tumor cells were used for all experiments.
The cytotoxicity was assessed using MTT assay.^1 NCI H-226 cells (4×10^4) were treated separately with compounds A, B, 5, and 6 for 72 h. After treatment, the cells were collected, washed with cold PBS, and then added 10 μL of MTT solution (5 mg/mL)(Sigma) with 50 μL of cells suspension in HBSS into 96-well plate and incubated them at 37° C. in the dark for 2 h. Treatment of living cells with MTT produces a dark blue formazan product, whereas no such staining is observed in dead cells. The formazan product was dissolved by adding 140 μL DMSO and then the absorbance was measured on an ELISA reader at a best wavelength of 570 nm.
Values are expression as the mean ±S.D. of three independent experiments. Student's t tests were used to assess the statistical significance of the differences, with “p” values of less than 0.05 being considered statistically significant.

Each structure is given as a SMILES string.

With `NCC(=O)OCc1ccc(-c2nn(Cc3ccccc3)c3ccccc23)o1` [Compound 5], the MTT % reads like this: (Conc. 0.10 μM) 85.8 ± 1.7%; (Conc. 1.0 μM) 18.5 ± 3.9%; (Conc. 10.0 μM) 0%.
